Experimental data reported in ChEMBL document CHEMBL4819025, “Natural Piperine Improves Lipid Metabolic Profile of High-Fat Diet-Fed Mice by Upregulating SR-B1 and ABCG8 Transporters” (J Nat Prod, 2021).
Active and inactive are the calls of the source. The calls are words filed in the database; no cut-off is given here.

How the values were obtained:
HepG2 [1] = assay: Hypolipidemic activity in human HepG2 cells assessed as reduction in FFA-induced intracellular fat deposition at 10 uM after 24 hrs by Oil Red O staining based assay; format: functional, cell-based
[2] = Toxicity in high fat diet-induced ICR mouse model of hyperlipidemia assessed as change in liver weight at 25 mg/kg, ig administered once daily for 8 weeks by H and E staining based microscopic analysis; format: organism-based; settings: in vivo, po, 1344 h
Mus musculus [3] = assay: Effect on ABCG5 mRNA expression level in high-fat diet fed mouse small intestine at 25 mg/kg, po by qRT-PCR analysis; format: functional, organism-based
[4] = Toxicity in high fat diet-induced ICR mouse model of hyperlipidemia assessed as change in spleen weight at 25 mg/kg, ig administered once daily for 8 weeks by H and E staining based microscopic analysis; format: organism-based; settings: in vivo, po, 1344 h
Mus musculus [5] = assay: Hypolipidemic activity in high fat diet-induced ICR mouse hyperlipidemic model assessed as reduction in TG level in liver at 25 mg/kg, ig administered once daily for 8 weeks by H and E staining based microscopic analysis; format: functional, organism-based
[6] = Toxicity in high fat diet-induced mouse model of hyperlipidemia assessed as change in body weight at 25 mg/kg, ig administered once daily for 8 weeks; format: organism-based; settings: in vivo, po, 1344 h
[7] = Upregulation of […] expression in high-fat diet fed mouse small intestine assessed as fold increase at 25 mg/kg, po by qRT-PCR analysis; format: functional
Mus musculus [8] = assay: Hypolipidemic activity in high fat diet-induced ICR mouse hyperlipidemic model assessed as reduction in plasma TG level at 25 mg/kg, ig administered once daily for 8 weeks; format: functional; parameters: scale not given: the % may be the effect or the level left
Mus musculus [9] = assay: Effect on SR-B1 mRNA expression level in high-fat diet fed mouse small intestine at 25 mg/kg, po by qRT-PCR analysis; format: functional, organism-based
Mus musculus [10] = assay: Effect on NPC1 mRNA expression level in high-fat diet fed mouse liver at 25 mg/kg/day by qRT-PCR analysis; format: functional, organism-based
[11] = Toxicity in high fat diet-induced ICR mouse model of hyperlipidemia assessed as change in kidney weight at 25 mg/kg, ig administered once daily for 8 weeks by H and E staining based microscopic analysis; format: organism-based; settings: in vivo, po, 1344 h
Mus musculus [12] = assay: Hypolipidemic activity in high fat diet-induced ICR mouse hyperlipidemic model assessed as reduction in TC level in liver at 25 mg/kg, ig administered once daily for 8 weeks by H and E staining based microscopic analysis; format: functional, organism-based
Mus musculus [13] = assay: Effect on SR-B1 mRNA expression level in high-fat diet fed mouse liver at 25 mg/kg/day by qRT-PCR analysis; format: functional, organism-based
Mus musculus [14] = assay: Hypolipidemic activity in normal diet fed ICR mouse assessed as alteration in plasma LDL-C level at 25 mg/kg, ig administered once daily for 8 weeks; format: functional, organism-based
Mus musculus [15] = assay: Hypolipidemic activity in high fat diet-induced ICR mouse hyperlipidemic model assessed as increase in plasma HDL-C level at 25 mg/kg, ig administered once daily for 8 weeks; format: functional, organism-based
Mus musculus [16] = assay: Hypolipidemic activity in normal diet fed ICR mouse assessed as alteration in plasma TG level at 25 mg/kg, ig administered once daily for 8 weeks; format: functional, organism-based
[17] = Toxicity in high fat diet-induced mouse model of hyperlipidemia assessed as change in food intake at 25 mg/kg, ig administered once daily for 8 weeks; format: organism-based; settings: in vivo, po, 1344 h
[18] = Upregulation of ABCG8 protein expression in high-fat diet fed mouse small intestine at 25 mg/kg, po by Western blotting analysis; format: functional
Mus musculus [19] = assay: Upregulation of ABCG8 mRNA expression in high-fat diet fed mouse liver at 25 mg/kg/day by qRT-PCR analysis; format: functional, organism-based
Mus musculus [20] = assay: Effect on ABCA1 protein expression level in high-fat diet fed mouse liver at 25 mg/kg/day by Western blotting analysis; format: functional, organism-based
Mus musculus [21] = assay: Upregulation of SR-B1 protein expression level in high-fat diet fed mouse liver at 25 mg/kg/day by Western blotting analysis; format: functional, organism-based
HepG2 [22] = assay: Cytotoxicity against human HepG2 cells assessed as reduction in cell viability at 1 to 100 uM after 24 hrs by CCK8 assay; format: cell-based; settings: hepg2, 24 h, dose 1-100 µM
[23] = Toxicity in high fat diet-induced ICR mouse model of hyperlipidemia assessed as change in hepatic morphology at 25 mg/kg, ig administered once daily for 8 weeks by H and E staining based microscopic analysis; format: organism-based; settings: in vivo, po, 1344 h
Mus musculus [24] = assay: Hypolipidemic activity in normal diet fed ICR mouse assessed as reduction in TC level in liver at 25 mg/kg, ig administered once daily for 8 weeks by H and E staining based microscopic analysis; format: functional, organism-based
Mus musculus [25] = assay: Effect on ABCA1 mRNA expression level in high-fat diet fed mouse liver at 25 mg/kg/day by qRT-PCR analysis; format: functional, organism-based
Mus musculus [26] = assay: Hypolipidemic activity in normal diet fed ICR mouse assessed as alteration in plasma TC level at 25 mg/kg, ig administered once daily for 8 weeks; format: functional, organism-based
[27] = Toxicity in high fat diet-induced ICR mouse model of hyperlipidemia assessed as change in lung weight at 25 mg/kg, ig administered once daily for 8 weeks by H and E staining based microscopic analysis; format: organism-based; settings: in vivo, po, 1344 h
Mus musculus [28] = assay: Effect on SR-B1 protein expression level in high-fat diet fed mouse small intestine at 25 mg/kg, po by Western blotting analysis; format: functional, organism-based
[29] = Toxicity in high fat diet-induced ICR mouse model of hyperlipidemia assessed as change in heart weight at 25 mg/kg, ig administered once daily for 8 weeks by H and E staining based microscopic analysis; format: organism-based; settings: in vivo, po, 1344 h
Mus musculus [30] = assay: Effect on ABCG5 protein expression level in high-fat diet fed mouse small intestine at 25 mg/kg, po by Western blotting analysis; format: functional, organism-based
Mus musculus [31] = assay: Effect on ABCA1 mRNA expression level in high-fat diet fed mouse small intestine at 25 mg/kg, po by qRT-PCR analysis; format: functional, organism-based
Mus musculus [32] = assay: Hypolipidemic activity in high fat diet-induced ICR mouse hyperlipidemic model assessed as reduction in fat accumulation in liver at 25 mg/kg, ig administered once daily for 8 weeks by H and E staining based microscopic analysis; format: functional, organism-based
Mus musculus [33] = assay: Effect on ABCA1 protein expression level in high-fat diet fed mouse small intestine at 25 mg/kg, po by Western blotting analysis; format: functional, organism-based
Mus musculus [34] = assay: Hypolipidemic activity in normal diet fed ICR mouse assessed as reduction in TG level in liver at 25 mg/kg, ig administered once daily for 8 weeks by H and E staining based microscopic analysis; format: functional, organism-based
HepG2 [35] = assay: Hypolipidemic activity in human HepG2 cells assessed as reduction in FFA-induced TG accumulation after 24 hrs; format: functional, cell-based; settings: dose 10-100 µM
[36] = Toxicity in high fat diet-induced ICR mouse model of hyperlipidemia assessed as change in stomach weight at 25 mg/kg, ig administered once daily for 8 weeks by H and E staining based microscopic analysis; format: organism-based; settings: in vivo, po, 1344 h
Mus musculus [37] = assay: Effect on ABCG5 mRNA expression level in high-fat diet fed mouse liver at 25 mg/kg/day by qRT-PCR analysis; format: functional, organism-based
HepG2 [38] = assay: Hypolipidemic activity in human HepG2 cells assessed as reduction in FFA-induced lipid accumulation incubated for 24 hrs by Oil Red O staining based assay; format: functional, cell-based; settings: dose 10-100 µM
Mus musculus [39] = assay: Effect on NPC1L1 protein expression level in high-fat diet fed mouse liver at 25 mg/kg/day by Western blotting analysis; format: functional, organism-based
Mus musculus [40] = assay: Hypolipidemic activity in high fat diet-induced ICR mouse hyperlipidemic model assessed as reduction in plasma LDL-C level at 25 mg/kg, ig administered once daily for 8 weeks; format: functional; parameters: scale not given: the % may be the effect or the level left
Mus musculus [41] = assay: Effect on NPC1 mRNA expression level in high-fat diet fed mouse small intestine at 25 mg/kg, po by qRT-PCR analysis; format: functional, organism-based
Mus musculus [42] = assay: Effect on NPC1L1 protein expression level in high-fat diet fed mouse small intestine at 25 mg/kg, po by Western blotting analysis; format: functional, organism-based
Mus musculus [43] = assay: Effect on ABCG1 mRNA expression level in high-fat diet fed mouse liver at 25 mg/kg/day by qRT-PCR analysis; format: functional, organism-based
Mus musculus [44] = assay: Hypolipidemic activity in normal diet fed ICR mouse assessed as alteration in plasma HDL-C level at 25 mg/kg, ig administered once daily for 8 weeks; format: functional, organism-based
Mus musculus [45] = assay: Effect on ABCG5 protein expression level in high-fat diet fed mouse liver at 25 mg/kg/day by Western blotting analysis; format: functional, organism-based
Mus musculus [46] = assay: Effect on ABCG8 protein expression level in high-fat diet fed mouse liver at 25 mg/kg/day by Western blotting analysis; format: functional, organism-based
Mus musculus [47] = assay: Effect on ABCG1 protein expression level in high-fat diet fed mouse liver at 25 mg/kg/day by Western blotting analysis; format: functional, organism-based
Mus musculus [48] = assay: Hypolipidemic activity in high fat diet-induced ICR mouse hyperlipidemic model assessed as reduction in plasma TC level at 25 mg/kg, ig administered once daily for 8 weeks; format: functional; parameters: scale not given: the % may be the effect or the level left
HepG2 [49] = assay: Hypolipidemic activity in human HepG2 cells assessed as reduction in FFA-induced intracellular fat deposition at 50 to 100 uM after 24 hrs by Oil Red O staining based assay; format: functional; parameters: scale not given: the % may be the effect or the level left; settings: dose 50-100 µM

## CC(C)c1c(C(=O)Nc2ccccc2)c(-c2ccccc2)c(-c2ccc(F)cc2)n1CC[C@@H](O)C[C@@H](O)CC(=O)O
HepG2 [1]
  Activity: Active

## O=C(/C=C/C=C/c1ccc2c(c1)OCO2)N1CCCCC1 [PIPERINE]
[2]
  Activity: Non-Toxic
Mus musculus [3]
  Activity: inactive
[4]
  Activity: Non-Toxic
Mus musculus [5]
  Activity: Active
[6]
  Activity: Non-Toxic
[7]
  fold change (FC): 1.8
Mus musculus [8]
  Activity: 43.6%
Mus musculus [9]
  Activity: inactive
Mus musculus [10]
  Activity: inactive
[11]
  Activity: Non-Toxic
Mus musculus [12]
  Activity: Active
Mus musculus [13]
  Activity: inactive
Mus musculus [14]
  Activity: inactive
Mus musculus [15]
  Activity: Active
Mus musculus [16]
  Activity: inactive
[17]
  Activity: Non-Toxic
[18]
  Activity: 80%
Mus musculus [19]
  Activity: Active
Mus musculus [20]
  Activity: inactive
Mus musculus [21]
  Activity: Active
HepG2 [22]
  Activity: Non-Toxic
[23]
  Activity: Non-Toxic
Mus musculus [24]
  Activity: inactive
Mus musculus [25]
  Activity: inactive
Mus musculus [26]
  Activity: inactive
[27]
  Activity: Non-Toxic
Mus musculus [28]
  Activity: inactive
[29]
  Activity: Non-Toxic
Mus musculus [30]
  Activity: inactive
Mus musculus [31]
  Activity: inactive
Mus musculus [32]
  Activity: Active
Mus musculus [33]
  Activity: inactive
Mus musculus [34]
  Activity: inactive
HepG2 [35]
  Activity: Dose-Dependent Effect
[36]
  Activity: Non-Toxic
Mus musculus [37]
  Activity: inactive
HepG2 [38]
  Activity: Dose-Dependent Effect
Mus musculus [39]
  Activity: inactive
Mus musculus [40]
  Activity: 34.4%
Mus musculus [41]
  Activity: inactive
Mus musculus [42]
  Activity: inactive
Mus musculus [43]
  Activity: inactive
Mus musculus [44]
  Activity: inactive
Mus musculus [45]
  Activity: inactive
Mus musculus [46]
  Activity: inactive
Mus musculus [47]
  Activity: inactive
Mus musculus [48]
  Activity: 27.5%
HepG2 [49]
  Activity: 36%
